According to patent EP4122499A1, “FIBROBLAST ACTIVATION PROTEIN INHIBITORS AND USE THEREOF” (3B Pharmaceuticals GmbH, priority 2021, dated 2023):

Experiments:
Human recombinant FAP [1] = biological target: T1, Human recombinant FAP (Homo sapiens, UniProt Q12884); test: Surface plasmon resonance assay (Biacore T200, single cycle kinetics); assay type: binding; conditions: SPR, 25°C; for Kd / pKD (Biacore): 1:1 Langmuir binding model; for Kd: read-out: pKD (Biacore) (converted); for HL [min] (Biacore): half-life
T1 sequence (Q12884 1-760): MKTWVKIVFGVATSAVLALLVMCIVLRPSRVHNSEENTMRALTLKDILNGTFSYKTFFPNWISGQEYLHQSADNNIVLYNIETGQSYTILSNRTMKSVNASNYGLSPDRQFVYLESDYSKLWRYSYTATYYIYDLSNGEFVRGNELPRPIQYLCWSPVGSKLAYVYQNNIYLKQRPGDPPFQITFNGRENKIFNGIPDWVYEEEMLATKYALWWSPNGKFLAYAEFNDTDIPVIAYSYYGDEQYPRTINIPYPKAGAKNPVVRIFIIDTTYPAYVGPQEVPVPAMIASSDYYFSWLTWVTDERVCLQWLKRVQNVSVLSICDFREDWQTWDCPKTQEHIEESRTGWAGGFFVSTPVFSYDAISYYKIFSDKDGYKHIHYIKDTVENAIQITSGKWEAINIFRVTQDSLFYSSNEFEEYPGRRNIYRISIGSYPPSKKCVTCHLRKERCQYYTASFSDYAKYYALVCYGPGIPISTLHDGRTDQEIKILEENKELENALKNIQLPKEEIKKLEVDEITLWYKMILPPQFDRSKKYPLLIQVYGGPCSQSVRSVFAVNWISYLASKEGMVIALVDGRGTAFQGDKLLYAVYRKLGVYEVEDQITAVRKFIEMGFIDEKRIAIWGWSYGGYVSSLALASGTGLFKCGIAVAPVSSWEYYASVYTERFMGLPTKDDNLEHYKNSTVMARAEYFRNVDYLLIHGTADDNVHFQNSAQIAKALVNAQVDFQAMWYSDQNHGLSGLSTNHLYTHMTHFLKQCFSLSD
Outline: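 Human recombinant FAP (20 µg/mL) was captured on anti-FAP antibody immobilized on a CM5 chip, and compounds were run in single-cycle kinetics at 25 °C in HBST with 0.1% DMSO, starting from 500 nM. Sensorgrams were corrected against a reference flow cell and for baseline drift. kon, koff, KD and t1/2 came from a 1:1 Langmuir fit, with pKD = −log KD.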

Recombinant human DPP4 = biological target: T2, Recombinant human DPP4 (Homo sapiens, UniProt P27487); test: DPP4 protease activity assay; assay type: biochemical; conditions: 20 µM GP-AMC substrate; for IC50: read-out: pIC50 (DPP4) (converted)
T2 construct: purchased R&D systems 9168-SE
T2 sequence (P27487 whole entry): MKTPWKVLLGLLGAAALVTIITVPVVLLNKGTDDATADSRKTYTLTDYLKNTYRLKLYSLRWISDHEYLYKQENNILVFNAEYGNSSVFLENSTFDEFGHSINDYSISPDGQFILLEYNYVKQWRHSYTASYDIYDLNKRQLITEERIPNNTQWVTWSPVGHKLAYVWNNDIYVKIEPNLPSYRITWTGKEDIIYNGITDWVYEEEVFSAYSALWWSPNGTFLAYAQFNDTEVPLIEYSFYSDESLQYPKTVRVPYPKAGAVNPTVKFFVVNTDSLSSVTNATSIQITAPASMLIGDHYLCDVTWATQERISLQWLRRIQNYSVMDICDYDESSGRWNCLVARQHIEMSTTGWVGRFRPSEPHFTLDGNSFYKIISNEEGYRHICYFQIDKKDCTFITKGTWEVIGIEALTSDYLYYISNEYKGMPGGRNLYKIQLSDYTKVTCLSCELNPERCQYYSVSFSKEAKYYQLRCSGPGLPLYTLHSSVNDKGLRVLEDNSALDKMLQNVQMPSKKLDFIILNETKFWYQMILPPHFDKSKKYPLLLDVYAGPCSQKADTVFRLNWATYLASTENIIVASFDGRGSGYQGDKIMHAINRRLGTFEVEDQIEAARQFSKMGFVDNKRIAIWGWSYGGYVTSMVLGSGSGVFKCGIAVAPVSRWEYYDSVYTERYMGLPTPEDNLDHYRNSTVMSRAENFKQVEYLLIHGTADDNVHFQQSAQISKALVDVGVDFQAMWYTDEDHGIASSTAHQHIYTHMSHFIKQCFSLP
Method: The PREP activity assay was performed using the FACS buffer (PBS including 1% FBS, Sigma-Aldrich, Cat# D8537). […] The DPP4 activity assay was performed in DPP assay buffer (25 mM Tris, pH 8.0).
Four parameter logistic (4PL) curve fitting and pIC50 calculations were performed using ActivityBase software.

Human recombinant FAP [2] = biological target: T1, Human recombinant FAP; test: FRET-based FAP protease activity assay (human); assay type: biochemical; parameters: purchased R&D systems 3715-SE; conditions: FRET-peptide substrate, 37°C; for IC50: read-out: pIC50 (Activity) (converted)
Method: In order to determine the inhibitory activity a FRET-based FAP protease activity assay was established.
25 µL of a 30 µM substrate solution, diluted in assay buffer, was added. […] Four parameter logistic (4PL) curve fitting and pIC50 calculations were performed using ActivityBase software (IDBS).

| Structure (SMILES) | Kd (Human recombinant FAP [1]) [nM] | HL [min] (Biacore) (Human recombinant FAP [1]) | IC50 (Recombinant human DPP4) [nM] | IC50 (Human recombinant FAP [2]) [nM] | pKD (Biacore) (Human recombinant FAP [1]) | pIC50 (DPP4) (Recombinant human DPP4) | pIC50 (Activity) (Human recombinant FAP [2]) |
| --- | --- | --- | --- | --- | --- | --- | --- |
| CS(=O)(=O)c1cccc(-c2ccc3nccc(C(=O)NCC(=O)N4CCC[C@H]4C#N)c3c2)c1 | 0.398 | 2.5 | > 1000 | 1 |  |  |  |
| CS(=O)(=O)c1cccc(-c2ccc3c(C(=O)NCC(=O)N4CCC[C@H]4C#N)ccnc3c2)c1 | 0.501 | 5.7 | > 1000 | 2 |  |  |  |
| O=C(NCC(=O)N1CCC[C@H]1C(=O)c1nc2ccccc2s1)c1ccnc2ccccc12 | 3.98 | 0.3 | > 1000 | 39.8 |  |  |  |
| O=C(NCC(=O)N1CCC[C@H]1C(=O)c1nc2ccccc2o1)c1ccnc2ccccc12 | 0.501 | 3.7 | > 1000 | 1.58 |  |  |  |
| O=C(NCC(=O)N1CCC[C@H]1C(=O)c1nccs1)c1ccnc2ccccc12 | 12.6 | 0.3 | > 1000 | 50.1 |  |  |  |
| CS(=O)(=O)c1ccc(-c2ccc3nccc(C(=O)NCC(=O)N4CC(F)(F)C[C@H]4C#N)c3c2)cc1 | 0.0251 | 125 | > 1000 | 0.631 |  |  |  |
| CS(=O)(=O)c1ccc(-c2ccc3nccc(C(=O)NCC(=O)N4CCC[C@H]4C#N)c3c2)cc1 | 0.158 | 12 | > 1000 | 0.631 |  |  |  |
| O=C(O)CN1CCN(CC(=O)O)CCN(CC(=O)N2CCN(CCCOc3ccc4nccc(C(=O)NCC(=O)N5CC(F)(F)C[C@H]5C(=O)c5nc6ccccc6o5)c4c3)CC2)CCN(CC(=O)O)CC1 |  | 57 |  |  | 8.6 | <6 | 8.6 |
| N#C[C@@H]1CC(F)(F)CN1C(=O)CNC(=O)c1ccnc2ccc(-c3ccc(S(=O)(=O)CCCNC(=O)CN4CCN(CC(=O)O)CCN(CC(=O)O)CCN(CC(=O)O)CC4)cc3)cc12 |  | >500 |  |  | >11 | 6.7 | 9.1 |
| O=C(O)CN1CCN(CC(=O)O)CCN(CC(=O)NCCCNC(=O)c2ccc(-c3ccc4nccc(C(=O)NCC(=O)N5CCC[C@H]5C(=O)c5nc6ccccc6o5)c4c3)cc2)CCN(CC(=O)O)CC1 |  | 259.3 |  |  | 10.3 | <6 | 8.8 |
| N#C[C@@H]1CC(F)(F)CN1C(=O)CNC(=O)c1cc[n+]([O-])c2ccc(OCCCN3CCN(C(=O)CN4CCN(CC(=O)O)CCN(CC(=O)O)CCN(CC(=O)O)CC4)CC3)cc12 |  | 19 |  |  | 9.8 | <6 | 9 |
| N#C[C@@H]1CC(F)(F)CN1C(=O)CNC(=O)c1ccnc2ccc(-c3ccc(C(=O)NCCCNC(=O)CN4CCN(CC(=O)O)CCN(CC(=O)O)CCN(CC(=O)O)CC4)cc3)cc12 |  | 110 |  |  | >11 | <6 | 9.2 |
| N#C[C@@H]1CC(F)(F)CN1C(=O)CNC(=O)c1ccnc2ccc(-c3ccc(C(=O)NCCN4CCN(C(=O)CN5CCN(CC(=O)O)CCN(CC(=O)O)CCN(CC(=O)O)CC5)CC4)cc3)cc12 |  | >500 |  |  | >11 | <6 | 9.1 |
| CC(C)(C)c1nnc(C(=O)[C@@H]2CCCN2C(=O)CNC(=O)c2ccnc3ccccc23)o1 | 2.51 | 0.4 | > 1000 | 3.98 |  |  |  |
| N#C[C@@H]1CC(F)(F)CN1C(=O)CNC(=O)c1ccnc2ccc(-c3ccc(C(=O)NCCCNC(=O)CN4CCN(CC(=O)O)CCN(CC(=O)O)CCN(CC(=O)O)CC4)nc3)cc12 |  | >500 |  |  | >11 | <6 | 9.1 |
| N#C[C@@H]1CCCN1C(=O)CNC(=O)c1ccnc2ccc(-c3ccc(C(=O)NCCCNC(=O)CN4CCN(CC(=O)O)CCN(CC(=O)O)CCN(CC(=O)O)CC4)cc3)cc12 |  | 160 |  |  | 10.2 | <6 | 9 |
| O=C(O)CN1CCN(CC(=O)O)CCN(CC(=O)NCCCNC(=O)c2ccc(-c3ccc4nccc(C(=O)NCC(=O)N5CCC[C@H]5B(O)O)c4c3)cc2)CCN(CC(=O)O)CC1 |  | >500 |  |  | >11 | <6 | 8.8 |
| CS(=O)(=O)c1cccc(-c2ccc3nccc(C(=O)NCC(=O)N4CC(F)(F)C[C@H]4C#N)c3c2)c1 [drawing 288] | 0.0794 | 29 | 794 | 0.631 |  |  |  |
| CS(=O)(=O)c1cccc(-c2ccc3c(C(=O)NCC(=O)N4CC(F)(F)C[C@H]4C#N)ccnc3c2)c1 [drawing 289] | 0.0794 | 29.5 | > 1000 | 0.794 |  |  |  |
| CS(=O)(=O)c1ccc(-c2ccc3c(C(=O)NCC(=O)N4CCC[C@H]4C#N)ccnc3c2)cc1 [drawing 290] | 0.631 | 4 | > 1000 | 1.58 |  |  |  |
| O=C(NCC(=O)N1CCC[C@H]1C(=O)c1ncco1)c1ccnc2ccccc12 [drawing 297] | 2.51 | 0.6 | > 1000 | 6.31 |  |  |  |
| O=C(O)CN1CCN(CC(=O)O)CCN(CC(=O)N2CCN(CCNC(=O)c3cccc(-c4ccc5c(C(=O)NCC(=O)N6CCC[C@H]6C(=O)c6nc7ccccc7o6)ccnc5c4)c3)CC2)CCN(CC(=O)O)CC1 [drawing 352] |  | >500 |  |  | >11 | <6 | 8.7 |
| O=C(O)CN1CCN(CC(=O)O)CCN(CC(=O)N2CCN(CCNC(=O)c3cccc(-c4ccc5nccc(C(=O)NCC(=O)N6CCC[C@H]6C(=O)c6nc7ccccc7o6)c5c4)c3)CC2)CCN(CC(=O)O)CC1 [drawing 353] |  | 289.5 |  |  | 10.1 | <6 | 8.6 |
| O=C(O)CN1CCN(CC(=O)O)CCN(CC(=O)N2CCN(CCNC(=O)c3ccc(-c4ccc5nccc(C(=O)NCC(=O)N6CCC[C@H]6C(=O)c6nc7ccccc7o6)c5c4)cc3)CC2)CCN(CC(=O)O)CC1 [drawing 354] |  | 10.5 |  |  | 9.1 | <6 | 8.4 |
| O=C(O)CN1CCN(CC(=O)O)CCN(CC(=O)N2CCN(CCNC(=O)c3ccc(-c4ccc5c(C(=O)NCC(=O)N6CCC[C@H]6C(=O)c6nc7ccccc7o6)ccnc5c4)cc3)CC2)CCN(CC(=O)O)CC1 [drawing 355] |  | >500 |  |  | >11 | <6 | 8.7 |
| O=C(O)CN1CCN(CC(=O)O)CCN(CC(=O)N2CCN(CCCOc3ccc4nccc(C(=O)NCC(=O)N5CCC[C@H]5C(=O)c5nc6ccccc6o5)c4c3)CC2)CCN(CC(=O)O)CC1 [drawing 357] |  | >500 |  |  | >11 | <6 | 8.9 |
| O=C(O)CN1CCN(CC(=O)O)CCN(CC(=O)N2CCN(CCCOc3ccc4nccc(C(=O)NCC(=O)N5C[C@@H](F)C[C@H]5C(=O)c5nc6ccccc6o5)c4c3)CC2)CCN(CC(=O)O)CC1 [drawing 358] |  | >500 |  |  | >11 | <6 | 9 |
| O=C(O)CN1CCN(CC(=O)O)CCN(CC(=O)N2CCN(CCNC(=O)c3ccc(-c4ccc5nccc(C(=O)NCC(=O)N6C[C@@H](F)C[C@H]6C(=O)c6nc7ccccc7o6)c5c4)cc3)CC2)CCN(CC(=O)O)CC1 [drawing 360] |  | 4.8 |  |  | 9 | <6 | 8.5 |
